According to the supplement of paper PMC13380429:

How the values were obtained:
Vero E6 [1] = experiment: drug sensitivity score (DSS) for viability; higher = more toxic; extreme values may be limits of the assay; conditions: 72 h
U2OS [2] = experiment: as above; conditions: 72 h
HepG2 [3] = experiment: as above; conditions: 72 h
Calu-3 [4] = experiment: as above; conditions: 72 h
Caco-2 [5] = experiment: as above; conditions: 72 h
Vero E6 [6] = experiment: relative viability EC50 (midpoint between 100% and the lowest measured viability); higher = less toxic; conditions: 72 h
U2OS [7] = experiment: as above; conditions: 72 h
HepG2 [8] = experiment: as above; conditions: 72 h
Calu-3 [9] = experiment: as above; conditions: 72 h
Caco-2 [10] = experiment: as above; conditions: 72 h
[11] = tested on: A549-ACE2 infected with SARS-CoV-2; experiment: cell count relative to DMSO; higher = less toxic; conditions: 24 h
[12] = tested on: A549-ACE2 infected with SARS-CoV-2; experiment: morphology score (similarity to uninfected cells); higher = more like uninfected cells; conditions: 24 h
[13] = tested on: A549-ACE2 infected with SARS-CoV-2; experiment: SARS-CoV-2 infection rate relative to DMSO; higher = more infection; conditions: 24 h
A549-ACE2 = experiment: drug-induced phospholipidosis relative to tamoxifen; higher = more phospholipidosis
Vero E6 [14] = experiment: cell viability relative to DMSO; higher = less toxic; conditions: 72 h
U2OS [15] = experiment: as above; conditions: 72 h
HepG2 [16] = experiment: as above; conditions: 72 h
Calu-3 [17] = experiment: as above; conditions: 72 h
Caco-2 [18] = experiment: as above; conditions: 72 h

**Q.** Which drug sensitivity score (Vero E6 [1]) does the source give for `O=C1Cc2c([nH]c3ccc(Br)cc23)-c2ccccc2N1` [kenpaullone] here?
**A.** Its drug sensitivity score is 0.

**Q.** What about the drug sensitivity score (U2OS [2]) of the same molecule?
**A.** Its drug sensitivity score is 0.3.

**Q.** What about the drug sensitivity score (HepG2 [3]) of the same molecule?
**A.** The drug sensitivity score was 0.

**Q.** What about the drug sensitivity score (Calu-3 [4]) of the same molecule?
**A.** Its drug sensitivity score is 0.

**Q.** What about the drug sensitivity score (Caco-2 [5]) of the same molecule?
**A.** The drug sensitivity score was 0.

**Q.** And the “relative viability EC50” value (Vero E6 [6])?
**A.** Its value is over 10 µM.

**Q.** What about the “relative viability EC50” value (U2OS [7]) of the same molecule?
**A.** Its value is over 10 µM.

**Q.** What about the “relative viability EC50” value (HepG2 [8]) of the same molecule?
**A.** The value was over 10 µM.

**Q.** What about the “relative viability EC50” value (Calu-3 [9]) of the same molecule?
**A.** Its value is over 10 µM.

**Q.** And the “relative viability EC50” value (Caco-2 [10])?
**A.** The value was over 10 µM.

**Q.** And the cell count ([11]; 0.3 µM)?
**A.** Its cell count is 103%.

**Q.** What about the cell count ([11]; 3 µM) of the same molecule?
**A.** The cell count was 100%.

**Q.** And the cell count ([11]; 10 µM)?
**A.** Its cell count is 85%.

**Q.** And the cell count ([11]; 30 µM)?
**A.** The cell count was 67%.

**Q.** What about the morphology score ([12]; 0.3 µM) of the same molecule?
**A.** The morphology score was 0.06.

**Q.** And the morphology score ([12]; 3 µM)?
**A.** Its morphology score is 0.37.

**Q.** What about the morphology score ([12]; 10 µM) of the same molecule?
**A.** The morphology score was 0.47.

**Q.** What about the morphology score ([12]; 30 µM) of the same molecule?
**A.** The morphology score was 0.48.

**Q.** What about the SARS-CoV-2 infection rate ([13]; 0.3 µM) of the same molecule?
**A.** The SARS-CoV-2 infection rate was 106%.

**Q.** What about the SARS-CoV-2 infection rate ([13]; 3 µM) of the same molecule?
**A.** Its SARS-CoV-2 infection rate is 96%.

**Q.** And the SARS-CoV-2 infection rate ([13]; 10 µM)?
**A.** The SARS-CoV-2 infection rate was 94%.

**Q.** And the SARS-CoV-2 infection rate ([13]; 30 µM)?
**A.** Its SARS-CoV-2 infection rate is 88%.

**Q.** And the drug-induced phospholipidosis (A549-ACE2; 0.3 µM, 24 h)?
**A.** The drug-induced phospholipidosis was -0.53%.

**Q.** And the drug-induced phospholipidosis (A549-ACE2; 0.3 µM, 48 h)?
**A.** The drug-induced phospholipidosis was 1.47%.

**Q.** And the drug-induced phospholipidosis (A549-ACE2; 0.3 µM, 72 h)?
**A.** Its drug-induced phospholipidosis is 2.92%.

**Q.** What about the drug-induced phospholipidosis (A549-ACE2; 0.833333 µM, 24 h) of the same molecule?
**A.** Its drug-induced phospholipidosis is -1.07%.

**Q.** What about the drug-induced phospholipidosis (A549-ACE2; 0.833333 µM, 48 h) of the same molecule?
**A.** Its drug-induced phospholipidosis is -0.14%.

**Q.** And the drug-induced phospholipidosis (A549-ACE2; 0.833333 µM, 72 h)?
**A.** Its drug-induced phospholipidosis is 0.874%.

**Q.** And the drug-induced phospholipidosis (A549-ACE2; 3.33333 µM, 24 h)?
**A.** The drug-induced phospholipidosis was -1.23%.

**Q.** And the drug-induced phospholipidosis (A549-ACE2; 3.33333 µM, 48 h)?
**A.** Its drug-induced phospholipidosis is 1.75%.

**Q.** What about the drug-induced phospholipidosis (A549-ACE2; 3.33333 µM, 72 h) of the same molecule?
**A.** The drug-induced phospholipidosis was 5.13%.

**Q.** What about the drug-induced phospholipidosis (A549-ACE2; 6.66667 µM, 24 h) of the same molecule?
**A.** The drug-induced phospholipidosis was 1.24%.

**Q.** And the drug-induced phospholipidosis (A549-ACE2; 6.66667 µM, 48 h)?
**A.** The drug-induced phospholipidosis was 3.52%.

**Q.** And the drug-induced phospholipidosis (A549-ACE2; 6.66667 µM, 72 h)?
**A.** Its drug-induced phospholipidosis is 6.52%.

**Q.** And the drug-induced phospholipidosis (A549-ACE2; 10 µM, 24 h)?
**A.** The drug-induced phospholipidosis was -0.93%.

**Q.** And the drug-induced phospholipidosis (A549-ACE2; 10 µM, 48 h)?
**A.** The drug-induced phospholipidosis was 2.75%.

**Q.** And the drug-induced phospholipidosis (A549-ACE2; 10 µM, 72 h)?
**A.** Its drug-induced phospholipidosis is 5.66%.

**Q.** And the drug-induced phospholipidosis (A549-ACE2; 30 µM, 24 h)?
**A.** The drug-induced phospholipidosis was 4.23%.

**Q.** What about the drug-induced phospholipidosis (A549-ACE2; 30 µM, 48 h) of the same molecule?
**A.** Its drug-induced phospholipidosis is 2.49%.

**Q.** What about the drug-induced phospholipidosis (A549-ACE2; 30 µM, 72 h) of the same molecule?
**A.** The drug-induced phospholipidosis was 9.54%.

**Q.** And the cell viability (Vero E6 [14]; 1 nM)?
**A.** Its cell viability is 93.4%.

**Q.** What about the cell viability (Vero E6 [14]; 10 nM) of the same molecule?
**A.** Its cell viability is 93.6%.

**Q.** And the cell viability (Vero E6 [14]; 100 nM)?
**A.** The cell viability was 90.1%.

**Q.** What about the cell viability (Vero E6 [14]; 1000 nM) of the same molecule?
**A.** Its cell viability is 101%.

**Q.** And the cell viability (Vero E6 [14]; 10000 nM)?
**A.** Its cell viability is 115%.

**Q.** And the cell viability (U2OS [15]; 1 nM)?
**A.** Its cell viability is 98.4%.

**Q.** What about the cell viability (U2OS [15]; 10 nM) of the same molecule?
**A.** Its cell viability is 98.9%.

**Q.** And the cell viability (U2OS [15]; 100 nM)?
**A.** The cell viability was 98.8%.

**Q.** What about the cell viability (U2OS [15]; 1000 nM) of the same molecule?
**A.** The cell viability was 104%.

**Q.** What about the cell viability (U2OS [15]; 10000 nM) of the same molecule?
**A.** The cell viability was 82.3%.

**Q.** And the cell viability (HepG2 [16]; 1 nM)?
**A.** Its cell viability is 110%.

**Q.** What about the cell viability (HepG2 [16]; 10 nM) of the same molecule?
**A.** The cell viability was 96.2%.

**Q.** And the cell viability (HepG2 [16]; 100 nM)?
**A.** Its cell viability is 100%.

**Q.** What about the cell viability (HepG2 [16]; 1000 nM) of the same molecule?
**A.** The cell viability was 108%.

**Q.** And the cell viability (HepG2 [16]; 10000 nM)?
**A.** Its cell viability is 100%.

**Q.** And the cell viability (Calu-3 [17]; 1 nM)?
**A.** Its cell viability is 92.1%.

**Q.** And the cell viability (Calu-3 [17]; 10 nM)?
**A.** Its cell viability is 95.1%.

**Q.** What about the cell viability (Calu-3 [17]; 100 nM) of the same molecule?
**A.** Its cell viability is 98.9%.

**Q.** What about the cell viability (Calu-3 [17]; 1000 nM) of the same molecule?
**A.** Its cell viability is 113%.

**Q.** What about the cell viability (Calu-3 [17]; 10000 nM) of the same molecule?
**A.** Its cell viability is 101%.

**Q.** What about the cell viability (Caco-2 [18]; 1 nM) of the same molecule?
**A.** Its cell viability is 99.6%.

**Q.** And the cell viability (Caco-2 [18]; 10 nM)?
**A.** Its cell viability is 93.2%.

**Q.** And the cell viability (Caco-2 [18]; 100 nM)?
**A.** Its cell viability is 100%.

**Q.** What about the cell viability (Caco-2 [18]; 1000 nM) of the same molecule?
**A.** The cell viability was 102%.

**Q.** What about the cell viability (Caco-2 [18]; 10000 nM) of the same molecule?
**A.** Its cell viability is 96%.
